In ChEMBL document CHEMBL1201862, “PubChem BioAssay data set” (2004):
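Values below derive from 48-hour exposures of cells grown in 96-well plates, with endpoints linearly interpolated between the two concentrations bracketing the appropriate inhibition level. Here, GI50 denotes the concentration required for 50% inhibition of growth.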 Activity calls are given as the source filed them. No stated cut-off is given here; in the data, active = GI50 up to about 1.1 µM and inactive = higher.

Columns and labels:
Experiment in all cases: NCI tumour cell line growth inhibition, 48 h
LXFL 529 = system: LXFL 529
MDA-MB-231 = system: MDA-MB-231
SF-295 = system: SF-295
SR = system: SR
NCI-H522 = system: NCI-H522
MCF7 = system: MCF7
EKVX = system: EKVX
M14 = system: M14
UACC-257 = system: UACC-257
SW-620 = system: SW-620
KM-20L2 = system: KM-20L2
HL-60 = system: HL-60
786-0 = system: 786-0
A549 = system: A549
DU-145 = system: DU-145
HCC 2998 = system: HCC 2998
PC-3 = system: PC-3
DMS-114 = system: DMS-114
UACC-62 = system: UACC-62
NCI/ADR-RES = system: NCI/ADR-RES

| Structure (SMILES) | GI50 (LXFL 529) | GI50 (MDA-MB-231) | GI50 (SF-295) | GI50 (SR) | GI50 (NCI-H522) | GI50 (MCF7) | GI50 (EKVX) | GI50 (M14) | GI50 (UACC-257) | GI50 (SW-620) | GI50 (KM-20L2) | GI50 (HL-60) | GI50 (786-0) | GI50 (A549) | GI50 (DU-145) | GI50 (HCC 2998) | GI50 (PC-3) | GI50 (DMS-114) | GI50 (UACC-62) | GI50 (NCI/ADR-RES) |
| --- | --- | --- | --- | --- | --- | --- | --- | --- | --- | --- | --- | --- | --- | --- | --- | --- | --- | --- | --- | --- |
| N=C(N)NCCCC(NCc1c2ccccc2nc2ccccc12)C(=O)O (stereo unspecified) | 38.5 µM (inactive) | 23.8 µM (inactive) | 48 µM (inactive) | 14.3 µM (inactive) | 22.9 µM (inactive) | 32 µM (inactive) | 33.1 µM (inactive) | 48.1 µM (inactive) | 33.7 µM (inactive) | 25.5 µM (inactive) | 29.4 µM (inactive) | 11 µM (inactive) | 31.3 µM (inactive) | 37.2 µM (inactive) | > 100 µM (inactive) | 33.5 µM (inactive) | 35.2 µM (inactive) | 23.3 µM (inactive) | 31.3 µM (inactive) | 28.5 µM (inactive) |
| CC(C)CCCCCCCCCCCCC(=O)NCC(=O)NC1C(C)OC(Nc2[nH]cnc3ncnc2-3)C(O)C1O (stereo unspecified) | 0.000588 µM (active) | < 0.01 µM (active) | 0.00234 µM (active) | 0.00153 µM (active) | 0.00273 µM (active) | < 0.01 µM (active) | 0.00575 µM (active) | 0.000487 µM (active) | < 0.01 µM (active) | 0.00101 µM (active) | < 0.01 µM (active) | 0.000746 µM (active) | 0.000491 µM (active) | 0.00128 µM (active) | 0.0022 µM (active) | 0.000331 µM (active) | 0.00433 µM (active) | < 0.0316 µM (active) | < 0.01 µM (active) | 0.00221 µM (active) |
| Cc1ccccc1-n1c(=O)sc2c(=O)n(-c3ccccc3)c(=S)[nH]c21 | > 100 µM (inactive) | – | > 100 µM (inactive) | > 100 µM (inactive) | 42.6 µM (inactive) | – | > 100 µM (inactive) | > 100 µM (inactive) | > 100 µM (inactive) | > 100 µM (inactive) | > 100 µM (inactive) | > 100 µM (inactive) | > 100 µM (inactive) | > 100 µM (inactive) | – | > 100 µM (inactive) | – | 56.2 µM (inactive) | > 100 µM (inactive) | – |
| CC1CC(=O)C(CC(=O)O)C1C(C(=O)C(=O)Nc1c(C#N)cccc1[N+](=O)[O-])[N+](=O)[O-] (stereo unspecified) | > 100 µM (inactive) | – | > 100 µM (inactive) | > 100 µM (inactive) | – | – | > 100 µM (inactive) | > 100 µM (inactive) | > 100 µM (inactive) | > 100 µM (inactive) | > 100 µM (inactive) | > 100 µM (inactive) | > 100 µM (inactive) | > 100 µM (inactive) | – | > 100 µM (inactive) | – | > 100 µM (inactive) | > 100 µM (inactive) | – |
| COc1ccc2c(c1)[n+]([O-])c(-c1ccc(OC)c(OC)c1)c(N)[n+]2[O-] | 49.8 µM (inactive) | – | 67.1 µM (inactive) | – | 15.9 µM (inactive) | – | > 100 µM (inactive) | 57.4 µM (inactive) | 31 µM (inactive) | > 100 µM (inactive) | 42 µM (inactive) | 53.2 µM (inactive) | > 100 µM (inactive) | > 100 µM (inactive) | – | > 100 µM (inactive) | – | 34.1 µM (inactive) | 31.1 µM (inactive) | – |
| O=C(CSSCC(=O)OCCS(=O)(=O)Nc1ccc(Br)cc1)OCCS(=O)(=O)Nc1ccc(Br)cc1 | 7.1 µM (inactive) | – | 12.2 µM (inactive) | – | 6.53 µM (inactive) | – | 26.5 µM (inactive) | 12.8 µM (inactive) | 9.46 µM (inactive) | 8.45 µM (inactive) | 22.9 µM (inactive) | 14.7 µM (inactive) | > 10 µM (inactive) | 19 µM (inactive) | – | 7.8 µM (inactive) | – | 4.26 µM (inactive) | 13 µM (inactive) | – |
| CN(C)CC[N+]1=Nc2cccc3cccc(c23)N1 | 58.1 µM (inactive) | – | > 100 µM (inactive) | 19.8 µM (inactive) | 33.7 µM (inactive) | – | > 84.7 µM (inactive) | > 100 µM (inactive) | > 100 µM (inactive) | 20.2 µM (inactive) | 40.7 µM (inactive) | 24.3 µM (inactive) | 55.1 µM (inactive) | 44.1 µM (inactive) | – | > 95.7 µM (inactive) | – | > 64.3 µM (inactive) | 99.8 µM (inactive) | – |
| COC(=O)C(=O)C(C(=O)C(=O)Nc1ccc(OC)cc1[N+](=O)[O-])c1nc2ccc([N+](=O)[O-])cc2nc1O (stereo unspecified) | > 100 µM (inactive) | – | > 100 µM (inactive) | > 100 µM (inactive) | > 100 µM (inactive) | – | > 100 µM (inactive) | > 100 µM (inactive) | > 100 µM (inactive) | > 100 µM (inactive) | > 100 µM (inactive) | > 100 µM (inactive) | > 100 µM (inactive) | > 100 µM (inactive) | – | > 100 µM (inactive) | – | > 100 µM (inactive) | > 100 µM (inactive) | – |
| Nc1ccc(C(=O)NN2C(=O)C(Cl)C2c2cccc(O)c2)cc1 (stereo unspecified) | 11.7 µM (inactive) | – | 18.3 µM (inactive) | – | 1.75 µM (inactive) | – | 21.5 µM (inactive) | 19.4 µM (inactive) | 18.3 µM (inactive) | 19.2 µM (inactive) | 17.1 µM (inactive) | 1.69 µM (inactive) | 13.4 µM (inactive) | 19.8 µM (inactive) | – | 15.8 µM (inactive) | – | 5.45 µM (inactive) | 14.8 µM (inactive) | – |
| C[Si](C)(C)/C=C\CCCN1C(=O)CCC1=O | > 100 µM (inactive) | – | > 100 µM (inactive) | > 100 µM (inactive) | > 100 µM (inactive) | – | > 100 µM (inactive) | > 100 µM (inactive) | > 100 µM (inactive) | > 100 µM (inactive) | > 100 µM (inactive) | > 100 µM (inactive) | > 100 µM (inactive) | > 100 µM (inactive) | – | > 100 µM (inactive) | – | 71.1 µM (inactive) | > 100 µM (inactive) | – |
| CCOC(=O)/C(C#N)=C\Sc1ccccc1 | 15 µM (inactive) | – | 20 µM (inactive) | 4.71 µM (inactive) | 3.21 µM (inactive) | – | 27.2 µM (inactive) | 15.9 µM (inactive) | 24.7 µM (inactive) | 25.9 µM (inactive) | 22.8 µM (inactive) | 7.23 µM (inactive) | 15.3 µM (inactive) | 10.4 µM (inactive) | – | – | – | 13.6 µM (inactive) | 16.1 µM (inactive) | – |
| CCCCN(CCCC)CC(C(=O)Nc1ccc([N+](=O)[O-])cc1[N+](=O)[O-])/C(C)=N\NC(=O)C[N+](C)(C)C (stereo unspecified) | 74 µM (inactive) | – | > 100 µM (inactive) | 25.1 µM (inactive) | 41.9 µM (inactive) | – | 30.3 µM (inactive) | > 100 µM (inactive) | > 100 µM (inactive) | – | > 100 µM (inactive) | > 100 µM (inactive) | > 100 µM (inactive) | > 100 µM (inactive) | – | > 100 µM (inactive) | – | 31.6 µM (inactive) | > 100 µM (inactive) | – |
| C=C1CC(CC)(CCN2C(=O)c3ccccc3C2=O)OC1=O (stereo unspecified) | 13.6 µM (inactive) | – | 29.2 µM (inactive) | 27.4 µM (inactive) | 3.48 µM (inactive) | – | 17 µM (inactive) | 10.9 µM (inactive) | 13.8 µM (inactive) | 7.55 µM (inactive) | 15.8 µM (inactive) | 9.2 µM (inactive) | 11.9 µM (inactive) | 27.7 µM (inactive) | – | 17.7 µM (inactive) | – | 19.2 µM (inactive) | 13.3 µM (inactive) | – |
| CN(CCO)c1nc2c(c(=O)[nH]1)CNCC2 | > 100 µM (inactive) | – | > 100 µM (inactive) | > 100 µM (inactive) | > 100 µM (inactive) | – | > 100 µM (inactive) | > 100 µM (inactive) | > 100 µM (inactive) | > 100 µM (inactive) | > 100 µM (inactive) | > 100 µM (inactive) | > 100 µM (inactive) | > 100 µM (inactive) | – | > 100 µM (inactive) | – | > 100 µM (inactive) | > 100 µM (inactive) | – |
| Cc1cc([N+](=O)[O-])ccc1NC(=O)C(=O)C(C(=O)c1ccccc1-c1ccccc1)C1OC(=O)c2ccccc21 (stereo unspecified) | 15.6 µM (inactive) | – | 19.2 µM (inactive) | 16.4 µM (inactive) | 12.9 µM (inactive) | – | > 10 µM (inactive) | 14 µM (inactive) | 25.4 µM (inactive) | 18 µM (inactive) | 3.48 µM (inactive) | – | 16.1 µM (inactive) | 10.8 µM (inactive) | – | 15.5 µM (inactive) | – | 13.1 µM (inactive) | 4.11 µM (inactive) | – |
| C1CC[N+]23CCCC[N+]2(C1)CCCC3 (stereo unspecified) | > 100 µM (inactive) | – | > 100 µM (inactive) | > 100 µM (inactive) | > 100 µM (inactive) | – | > 100 µM (inactive) | > 100 µM (inactive) | > 100 µM (inactive) | > 100 µM (inactive) | > 100 µM (inactive) | > 100 µM (inactive) | > 100 µM (inactive) | > 100 µM (inactive) | – | > 100 µM (inactive) | – | 56.2 µM (inactive) | > 100 µM (inactive) | – |
| O=C1c2ccc(O)c(O)c2C(=O)c2c(O)ccc(O)c21 [QUINALIZARIN] | 27.5 µM (inactive) | – | 27.1 µM (inactive) | 26.5 µM (inactive) | 1.45 µM (inactive) | – | 26.9 µM (inactive) | 21.5 µM (inactive) | 20.5 µM (inactive) | 28.2 µM (inactive) | 25.4 µM (inactive) | – | 26.3 µM (inactive) | 21.1 µM (inactive) | – | 23.3 µM (inactive) | – | 15.9 µM (inactive) | 21.4 µM (inactive) | – |
| O[C@H]1[C@H]2[C@H](O)CCCN2C[C@H]1O [TRIDOLGOSIR] | > 100 µM (inactive) | – | > 100 µM (inactive) | – | > 100 µM (inactive) | – | > 100 µM (inactive) | > 100 µM (inactive) | > 100 µM (inactive) | > 100 µM (inactive) | > 100 µM (inactive) | > 100 µM (inactive) | > 100 µM (inactive) | > 100 µM (inactive) | – | > 100 µM (inactive) | – | > 100 µM (inactive) | > 100 µM (inactive) | – |
